Measured values from patent US9247750B2, “Polyenylcyclopropanecarboxylic esters with high insecticidal activity” (Endura S.P.A., priority 2007, dated 2016).

Assays:
Type in all cases: in vivo
Blattella germanica = assay: Effectiveness of residual insecticide on surfaces (glazed tiles) against cockroaches (Example 6); details: 50 mg/m^2 on glazed tiles, 24 h exposure
Protocol: Solutions of the compound of example 3 in acetone and, for comparison, of the reference compounds Transfluthrin and Metofluthrin were applied from a distance of 12 cm onto glazed tiles (Ostara model, 15×15 cm=225 cm^2) by means of a suitable glass sprayer, so as to obtain an applied amount of pure compound equal to 50 mg/m^2. After treatment the tiles were transferred to and maintained in a closed test room at controlled temperature and humidity (24-25° C., RH 50-60%). Glass rings (H 5.5 cm×Ø 9.5 cm), with their internal surface treated with talc, and each containing 5 cockroaches, were positioned at the centre of the tiles for each of the assessment times of 24 hours, 3, 7, 10 and 14 days following treatment. For each assessment day, the insects were maintained on the surface for 24 hours and the time (hours, minutes) necessary to attain 100% knock-down followed by death, or percentage knock-down at the end of 24 hours, were recorded.

Aedes aegypti [1] = assay: Insecticide effectiveness in the vapour phase against mosquitoes, impregnated paper unit in 20 m^3 room (Example 9); details: 5 mg/unit; for % mortality 24 h: 24th hour from start of test; for % Knock-down 8 h: at end of 8th hour; for Knock-down time KT10 / Knock-down time KT50 / Knock-down time KT90: average of 3 cages
Protocol: (§1) Test units consisting of a paper support 20 cm×10 cm in size were impregnated with the compound of examples 3, 7 and 8 and, for comparative purposes, with the reference compounds transfluthrin and metofluthrin, at an amount of 5.00 mg/unit for each compound (pure). Using a common laboratory stand, the test unit was placed at a height of about 30 cm from the ground along one side of a 20 m^3 room (L 3.00 m×D 2.49 m×H 2.69 m). In order to homogenize the insecticidal air within the room, a small electric fan was placed on the floor diagonal to the surface of the unit, in the nearest corner at a distance of about 50 cm from the unit. Three metal cages (L 8.4 cm×Ø 8.0 cm×mesh 1.0 mm) for every mosquito species, each containing 20 3-4 day old individuals of mixed sex, were placed along the other three sides of the room, at a height of 1.80 m from the ground and at a distance of 0.45 m from the respective walls. During the test the room was kept closed and temperature and humidity were controlled (T 23-26° C., RH 49-61%). The fan was switched on and left on for 8 continuous hours. The times needed to reach 10%, 50% and 90% insect knock-down (KT10, KT50 and KT90, respectively) were recorded.
(§2) Every 2 hours and up to the 6th hour after the fan was switched on, new cages were introduced containing insects (set of 3 cages for each species).
(§3) At the end of the 8th hour, the percentage of insects knocked down in all the cages was determined, then the insects were removed from the room and transferred into an uncontaminated atmosphere within closed containers containing a sugary solution. The percentage mortality was recorded at the 24th hour from the start of the test.
(§4) The results obtained are summarized in tables 1 and 2 and the data are averages for the 3 cages.

Culex quinquefasciatus [2] = assay: as above; details: 5 mg/unit; for % mortality 24 h: 24th hour from start of test; for % Knock-down 8 h: at end of 8th hour; for Knock-down time KT10 / Knock-down time KT50 / Knock-down time KT90: average of 3 cages
Protocol: as §1, §2, §3, §4

Aedes aegypti [3] = assay: Insecticide effectiveness in the vapour phase against mosquitoes, impregnated paper unit in 20 m^3 room (Example 5); details: 5 mg/unit; for % mortality 24 h: 24th hour from start of test; for % Knock-down 8 h: at end of 8th hour; for Knock-down time KT10 / Knock-down time KT50 / Knock-down time KT90: average of 3 cages
Protocol: (§5) Test units consisting of a paper support 20 cm×10 cm in size were impregnated with the compound of example 3 and, for comparative purposes, with the reference compounds transfluthrin and metofluthrin, at an amount of 5.00 mg/unit for each compound (pure).
(§6) Using a common laboratory stand, the test unit was placed at a height of about 30 cm from the ground along one side of a 20 m^3 room (L 3.00 m×D 2.49 m×H 2.69 m). In order to homogenize the insecticidal air within the room, a small electric fan was placed on the floor diagonal to the surface of the unit, in the is nearest corner at a distance of about 50 cm from the unit. Three metal cages (L 8.4 cm×Ø 8.0 cm×mesh 1.0 mm) for every mosquito species, each containing 20 3-4 day old individuals of mixed sex, were placed along the other three sides of the room, at a height of 1.80 m from the ground and at a distance of 0.45 m from the respective walls. During the test the room was kept closed and temperature and humidity were controlled (T 23-26° C., RH 49-61%).
(§7) The fan was switched on and left on for 8 continuous hours. The times needed to reach 10%, 50% and 90% insect knock-down (KT10, KT50 and KT90, respectively) were recorded.
as §2, §3, §4

Culex quinquefasciatus [4] = assay: as above; details: 5 mg/unit; for % mortality 24 h: 24th hour from start of test; for % Knock-down 8 h: at end of 8th hour; for Knock-down time KT10 / Knock-down time KT50 / Knock-down time KT90: average of 3 cages
Protocol: as §5, §6, §7, §2, §3, §4

## CC1(C)[C@H](C=C(Cl)Cl)[C@H]1C(=O)OCc1c(F)c(F)cc(F)c1F [Transfluthrin, transfluthrin]
Blattella germanica; 1 day after treatment
  percentage knock-down after 24 hours: 60%
Blattella germanica; 3 days after treatment
  percentage knock-down after 24 hours: 24 h 0%
Blattella germanica; 7 days after treatment
  percentage knock-down after 24 hours: 24 h 0%
Aedes aegypti [1]; insect exposure after 0 hours
  % mortality 24 h: 100%
  % Knock-down 8 h: 100%
  Knock-down time KT10: 21 min
  Knock-down time KT50: 26 min
  Knock-down time KT90: 35 min
Aedes aegypti [1]; insect exposure after 2 hours
  % mortality 24 h: 100%
  % Knock-down 8 h: 100%
  Knock-down time KT10: 7 min
  Knock-down time KT50: 9 min
  Knock-down time KT90: 12 min
Aedes aegypti [1]; insect exposure after 4 hours
  % mortality 24 h: 100%
  % Knock-down 8 h: 100%
  Knock-down time KT10: 6 min
  Knock-down time KT50: 9 min
  Knock-down time KT90: 14 min
Culex quinquefasciatus [2]; insect exposure after 0 hours
  % mortality 24 h: 100%
  % Knock-down 8 h: 100%
  Knock-down time KT10: 31 min
  Knock-down time KT50: 42 min
  Knock-down time KT90: 55 min
Culex quinquefasciatus [2]; insect exposure after 2 hours
  % mortality 24 h: 100%
  % Knock-down 8 h: 100%
  Knock-down time KT10: 16 min
  Knock-down time KT50: 25 min
  Knock-down time KT90: 34 min
Culex quinquefasciatus [2]; insect exposure after 4 hours
  % mortality 24 h: 100%
  % Knock-down 8 h: 100%
  Knock-down time KT10: 11 min
  Knock-down time KT50: 16 min
  Knock-down time KT90: 24 min
Aedes aegypti [3]; insect exposure after 0 hours
  % mortality 24 h: 100%
  % Knock-down 8 h: 100%
  Knock-down time KT10: 21 min
  Knock-down time KT50: 26 min
  Knock-down time KT90: 36 min
Aedes aegypti [3]; insect exposure after 2 hours
  % mortality 24 h: 100%
  % Knock-down 8 h: 100%
  Knock-down time KT10: 5 min
  Knock-down time KT50: 9 min
  Knock-down time KT90: 12 min
Aedes aegypti [3]; insect exposure after 4 hours
  % mortality 24 h: 100%
  % Knock-down 8 h: 100%
  Knock-down time KT10: 4 min
  Knock-down time KT50: 7 min
  Knock-down time KT90: 10 min
Culex quinquefasciatus [4]; insect exposure after 0 hours
  % mortality 24 h: 100%
  % Knock-down 8 h: 100%
  Knock-down time KT10: 27 min
  Knock-down time KT50: 37 min
  Knock-down time KT90: 44 min
Culex quinquefasciatus [4]; insect exposure after 2 hours
  % mortality 24 h: 100%
  % Knock-down 8 h: 100%
  Knock-down time KT10: 7 min
  Knock-down time KT50: 14 min
  Knock-down time KT90: 20 min
Culex quinquefasciatus [4]; insect exposure after 4 hours
  % mortality 24 h: 100%
  % Knock-down 8 h: 100%
  Knock-down time KT10: 9 min
  Knock-down time KT50: 17 min
  Knock-down time KT90: 22 min
